Measured values published in US10265284B2, “Composition for use in the treatment of intervertebral disc-related pain” (STAYBLE THERAPEUTICS AB, priority 2015, dated 2019).

Experiments:
Format in all cases: in vivo, pig
[1] = test system: nucleus pulposus of the L3-4 intervertebral disc; test: Flexion stiffness of the injected L3-4 intervertebral disc, Example 1; conditions: injected L 3-4 vs non-injected L 2-3 and L 4-5; seven days
Experimental: Access to the L4-5 intervertebral disc was obtained through a lateral incision between the lowest rib and the iliac crest on the left side of each pig. Thereafter, the L3-4 intervertebral disc was incised with a scalpel. […] The composition was injected in a single step at a single occasion.

[2] = test system: nucleus pulposus of the L3-4 intervertebral disc; test: Dimension of the disc space after injection, Example 1
Experimental: 110. performing a cross-section of the discs and measuring the length (anterio-posterior direction) and the width (bilateral direction) of the disc space. Two pigs were anesthetized and placed on their right side. Access to the L4-5 intervertebral disc was obtained through a lateral incision between the lowest rib and the iliac crest on the left side of each pig. Thereafter, the L3-4 intervertebral disc was incised with a scalpel. […] The composition was injected in a single step at a single occasion. The intervertebral discs (L2-3, L3-4, L4-5) were cross-sectioned and the length of the disc space (anterio-posterior direction) and the width (bilateral direction) of the disc space were measured by calipers. In FIGS. 5 and 6, an intervertebral disc is schematically shown in cross-section. The intervertebral disc comprises the annulus fibrosus 10, and a disc space defined by the annulus fibrosus and comprising the nucleus pulposus 11.

[3] = Tolerability and adverse reactions after intradiscal injection, Example 1
Experimental: Two pigs were anesthetized and placed on their right side. Access to the L4-5 intervertebral disc was obtained through a lateral incision between the lowest rib and the iliac crest on the left side of each pig. Thereafter, the L3-4 intervertebral disc was incised with a scalpel.
The composition was injected in a single step at a single occasion.
At harvest, the pigs were killed.
The injection site was observed by the naked eye. […] The segment of the vertebral column extending from the lumbar vertebra L2 to the sacral vertebra S1 was removed. The facet joints were removed, thus allowing full flexibility of the discs with no restraints from other structures.

[4] = injected L 3-4 vs non-injected L2-3, L4-5, seven days

With CC(O)C(=O)O (stereo not drawn) [lactic acid] the “Balanced value (flexion stiffness) of injected discs compared with non-injected adjacent discs” value [1] was “much smaller balanced value”, the “Cross-sectional area of the disc space compared with non-injected discs” value ([2]; FIG. 7, injected L3-4 vs non-injected L2-3 and L4-5, naked eye) was “much smaller cross-sectional area” and the “Average anterio-posterior length of the disc space compared with non-injected discs” value [2, 4] was “significantly lower”. For the same compound, the “Average bilateral width of the disc space compared with non-injected discs” value [2, 4] was “significantly lower”, the “Adverse reaction such as decreased mobility or vocalization” value ([3]; both pigs, period of seven days until harvest, 0.2 mL of 1.34 mol/L, pH 1.8, into L3-4 disc) was “no adverse reaction” and the “Adverse reaction at the injection site, such as bleedings, inflammation or necrosis” value ([3]; naked eye at harvest, seven days after injection) was “No adverse reaction at the injection site”.
